Experimental data taken from patent US10040838B2, “CRHR2 peptide agonists and uses thereof” (JANSSEN PHARMACEUTICA NV, priority 2008, dated 2018).
Residues, ends and D or L forms follow the SMILES beside them. No end group written: not given here. *: point of attachment. Succinimide(1-Et,3-yl) = CCN1C(=O)CC(*)C1=O

target: T1, human CRHR2 (Homo sapiens, UniProt Q13324); experiment: cAMP assay in h-CRHR2 transfected SK-N-MC cells; type: cell-based; settings: Table 12; Hill slope
T1 construct: expressed in transfected cells
T1 sequence (Q13324 1-411): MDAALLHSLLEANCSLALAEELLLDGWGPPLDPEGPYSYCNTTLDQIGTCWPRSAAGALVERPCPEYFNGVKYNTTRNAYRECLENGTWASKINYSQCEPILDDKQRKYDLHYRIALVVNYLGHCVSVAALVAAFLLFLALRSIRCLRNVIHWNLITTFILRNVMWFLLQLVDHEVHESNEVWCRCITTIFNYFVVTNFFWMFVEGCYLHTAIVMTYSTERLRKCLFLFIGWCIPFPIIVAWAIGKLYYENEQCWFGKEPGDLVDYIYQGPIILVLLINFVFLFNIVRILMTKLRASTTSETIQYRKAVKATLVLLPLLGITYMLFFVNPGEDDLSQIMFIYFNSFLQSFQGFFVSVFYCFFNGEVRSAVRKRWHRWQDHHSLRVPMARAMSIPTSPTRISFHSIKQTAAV
Summary of the method: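 SK-N-MC cells stably expressing human CRHR2 were stimulated with peptides (1 pM-10 μM) for 60 min at 37 °C with 10 μM IBMX, then lysed in 0.5 M HCl. cAMP was quantified by competitive [125I]-cAMP antibody flash-plate assay. Hill-equation fits gave A50/pA50; Log DR was taken relative to h-SCP control in the same batch.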

nH	Compound
1.07	KFTLSLDVPTNIMNLLFNIAKAKNLRAQAAANAHLMAQI-NH2 [SEQ ID NO: 107, KFTLSLDVPTNIMNLLFNIAKAKNLRAQAAANAHLMAQI-NH2]
0.74	LSLDVPTNIMNLLFNIAKAKNLRAQAAANAHLMAQI-NH2 [SEQ ID NO: 109, LSLDVPINIMNLLFNIAKAKNLRAQAAANAHLMAQI-NH2]

same assay, conditions: Table 13; h-SCP control pA50 minus test compound pA50 within same assay batch

Compound	Log DR
CKFTLSLDVPTNIMNLLFNIAKAKNLRAQAAANAHLMAQI-NH2 [SEQ ID NO: 2, CKFTLSLDVPTNIMNLLFNIAKAKNLRAQAAANAHLMAQI-NH2]	0.72
TCFTLSLDVPTNIMNLLFNIAKAKNLRAQAAANAHLMAQI-NH2 [SEQ ID NO: 3, TCFTLSLDVPTNIMNLLFNIAKAKNLRAQAAANAHLMAQI-NH2]	0.72
TKFCLSLDVPTNIMNLLFNIAKAKNLRAQAAANAHLMAQI-NH2 [SEQ ID NO: 5, TKFCLSLDVPTNIMNLLFNIAKAKNLRAQAAANAHLMAQI-NH2]	0.76
TKFTLCLDVPTNIMNLLFNIAKAKNLRAQAAANAHLMAQI-NH2 [SEQ ID NO: 7, TKFTLCLDVPTNIMNLLFNIAKAKNLRAQAAANAHLMAQI-NH2]	2.08
TKFTLSCDVPTNIMNLLFNIAKAKNLRAQAAANAHLMAQI-NH2 [SEQ ID NO: 8, TKFTLSCDVPTNIMNLLFNIAKAKNLRAQAAANAHLMAQI-NH2]	2.86
TKFTLSLCVPTNIMNLLFNIAKAKNLRAQAAANAHLMAQI-NH2 [SEQ ID NO: 9, TKFTLSLCVPTNIMNLLFNIAKAKNLRAQAAANAHLMAQI-NH2]	1.89
TKFTLSLDVCTNIMNLLFNIAKAKNLRAQAAANAHLMAQI-NH2 [SEQ ID NO: 11, TKFTLSLDVCTNIMNLLFNIAKAKNLRAQAAANAHLMAQI-NH2]	0.82
TKFTLSLDVPTCIMNLLFNIAKAKNLRAQAAANAHLMAQI-NH2 [SEQ ID NO: 13, TKFTLSLDVPTCIMNLLFNIAKAKNLRAQAAANAHLMAQI-NH2]	−0.01
TKFTLSLDVPTNCMNLLFNIAKAKNLRAQAAANAHLMAQI-NH2 [SEQ ID NO: 14, TKFTLSLDVPTNCMNLLFNIAKAKNLRAQAAANAHLMAQI-NH2]	>2
TKFTLSLDVPTNICNLLFNIAKAKNLRAQAAANAHLMAQI-NH2 [SEQ ID NO: 15, TKFTLSLDVPTNICNLLFNIAKAKNLRAQAAANAHLMAQI-NH2]	0.90
TKFTLSLDVPTNIMCLLFNIAKAKNLRAQAAANAHLMAQI-NH2 [SEQ ID NO: 16, TKFTLSLDVPTNIMCLLFNIAKAKNLRAQAAANAHLMAQI-NH2]	0.76
TKFTLSLDVPTNIMNLCFNIAKAKNLRAQAAANAHLMAQI-NH2 [SEQ ID NO: 18, TKFTLSLDVPTNIMNLCFNIAKAKNLRAQAAANAHLMAQI-NH2]	1.11
TKFTLSLDVPTNIMNLLCNIAKAKNLRAQAAANAHLMAQI-NH2 [SEQ ID NO: 19, TKFTLSLDVPTNIMNLLCNIAKAKNLRAQAAANAHLMAQI-NH2]	1.67
TKFTLSLDVPTNIMNLLFCIAKAKNLRAQAAANAHLMAQI-NH2 [SEQ ID NO: 20, TKFTLSLDVPTNIMNLLFCIAKAKNLRAQAAANAHLMAQI-NH2]	0.52
TKFTLSLDVPTNIMNLLFNIAKACNLRAQAAANAHLMAQI-NH2 [SEQ ID NO: 25, TKFTLSLDVPTNIMNLLFNIAKACNLRAQAAANAHLMAQI-NH2]	0.35
TKFTLSLDVPTNIMNLLFNIAKAKCLRAQAAANAHLMAQI-NH2 [SEQ ID NO: 26, TKFTLSLDVPTNIMNLLFNIAKAKCLRAQAAANAHLMAQI-NH2]	0.08

The remaining lines, values ahead:

Log DR	Compound
−0.08	CC[C@H](C)[C@H](NC(=O)[C@H](CCC(N)=O)NC(=O)[C@H](C)NC(=O)[C@H](CCSC)NC(=O)[C@H](CC(C)C)NC(=O)[C@H](Cc1c[nH]cn1)NC(=O)[C@H](C)NC(=O)[C@H](CC(N)=O)NC(=O)[C@H](C)NC(=O)[C@H](C)NC(=O)[C@H](C)NC(=O)[C@H](CCC(N)=O)NC(=O)[C@H](C)NC(=O)[C@H](CCCNC(=N)N)NC(=O)[C@H](CC(C)C)NC(=O)[C@H](CC(N)=O)NC(=O)[C@H](CCCCN)NC(=O)[C@H](C)NC(=O)[C@H](CCCCN)NC(=O)[C@H](C)NC(=O)[C@@H](NC(=O)[C@H](CC(N)=O)NC(=O)[C@H](Cc1ccccc1)NC(=O)[C@H](CC(C)C)NC(=O)[C@H](CSC1CC(=O)N(CC)C1=O)NC(=O)[C@H](CC(N)=O)NC(=O)[C@H](CCSC)NC(=O)[C@@H](NC(=O)[C@H](CC(N)=O)NC(=O)[C@@H](NC(=O)[C@@H]1CCCN1C(=O)[C@@H](NC(=O)[C@H](CC(=O)O)NC(=O)[C@H](CC(C)C)NC(=O)[C@H](CO)NC(=O)[C@H](CC(C)C)NC(=O)[C@@H](NC(=O)[C@H](Cc1ccccc1)NC(=O)[C@H](CCCCN)NC(=O)[C@@H](N)[C@@H](C)O)[C@@H](C)O)C(C)C)[C@@H](C)O)[C@@H](C)CC)[C@@H](C)CC)C(N)=O (stereo partly drawn) [SEQ ID NO: 54, TKFTL SLDVP TNIMN C(-NES)LFNI AKAKN LRAQA AANAH LMAQI-NH2] (H-TKFTLSLDVPTNIMNC(Succinimide(1-Et,3-yl))LFNIAKAKNLRAQAAANAHLMAQI-NH2; N-terminus assumed)
1.03	TKCTLSLDVPTNIMNLLFNIAKAKNLRAQAAANAHLMAQI-NH2 [SEQ ID NO: 4, TKCTLSLDVPTNIMNLLFNIAKAKNLRAQAAANAHLMAQI-NH2]
0.61	TKFTCSLDVPTNIMNLLFNIAKAKNLRAQAAANAHLMAQI-NH2 [SEQ ID NO: 6, TKFTCSLDVPTNIMNLLFNIAKAKNLRAQAAANAHLMAQI-NH2]
1.30	TKFTLSLDCPTNIMNLLFNIAKAKNLRAQAAANAHLMAQI-NH2 [SEQ ID NO: 10, TKFTLSLDCPTNIMNLLFNIAKAKNLRAQAAANAHLMAQI-NH2]
1.72	TKFTLSLDVPCNIMNLLFNIAKAKNLRAQAAANAHLMAQI-NH2 [SEQ ID NO: 12, TKFTLSLDVPCNIMNLLFNIAKAKNLRAQAAANAHLMAQI-NH2]
0.02	TKFTLSLDVPTNIMNCLFNIAKAKNLRAQAAANAHLMAQI-NH2 [SEQ ID NO: 17, TKFTLSLDVPTNIMNCLFNIAKAKNLRAQAAANAHLMAQI-NH2]
0.77	TKFTLSLDVPTNIMNLLFNCAKAKNLRAQAAANAHLMAQI-NH2 [SEQ ID NO: 21, TKFTLSLDVPTNIMNLLFNCAKAKNLRAQAAANAHLMAQI-NH2]
1.13	TKFTLSLDVPTNIMNLLFNIACAKNLRAQAAANAHLMAQI-NH2 [SEQ ID NO: 23, TKFTLSLDVPTNIMNLLFNIACAKNLRAQAAANAHLMAQI-NH2]

same assay, conditions: Table 14

pA50	Compound
8.15	TKFTLSLDVPTNIMNLLFNIAKAKNLRC(-IA-PEG MW20000)QA AANAH LMAQI-NH2 (TKFTLSLDVPTNIMNLLFNIAKAKNLRC(IA‑PEG 20 kDa)QAAANAHLMAQI-NH2) [SEQ ID NO: 102]

same assay, conditions: Table 14; % of the maximum response obtained to h-SCP

αmax [%]	Compound
111.1	TKFTLSLDVPTNIMNLLFNIAKAKNLRC(-IA-PEG MW20000)QA AANAH LMAQI-NH2 (TKFTLSLDVPTNIMNLLFNIAKAKNLRC(IA‑PEG 20 kDa)QAAANAHLMAQI-NH2) [SEQ ID NO: 102]

same assay, conditions: Table 14; Hill slope

nH	Compound
1.05	TKFTLSLDVPTNIMNLLFNIAKAKNLRC(-IA-PEG MW20000)QA AANAH LMAQI-NH2 (TKFTLSLDVPTNIMNLLFNIAKAKNLRC(IA‑PEG 20 kDa)QAAANAHLMAQI-NH2) [SEQ ID NO: 102]

same assay, conditions: in the presence of 100 nM anti-sauvagine-30; maximal response constrained to 100%

pA50 approximate value	Compound
~6.89	TKFTLSLDVPTNIMNLLFNIAKAKNLRC(-IA-PEG MW20000)QA AANAH LMAQI-NH2 (TKFTLSLDVPTNIMNLLFNIAKAKNLRC(IA‑PEG 20 kDa)QAAANAHLMAQI-NH2) [SEQ ID NO: 102]

same assay, conditions: tested as antagonists of h-SCP at 10 μM; read-out: receptor affinity (KA)

Kd [µM]	Compound
< 10	DVPTNIMNLLFNIAKAKNLRAQAAANAHLMAQI-NH2 [SEQ ID NO: 112, DVPTNIMNLLFNIAKAKNLRAQAAANAHLMAQI-NH2]
< 10	LDVPTNIMNLLFNIAKAKNLRAQAAANAHLMAQI-NH2 [SEQ ID NO: 111, LDVPTNIMNLLFNIAKAKNLRAQAAANAHLMAQI-NH2]
< 10	SLDVPTNIMNLLFNIAKAKNLRAQAAANAHLMAQI-NH2 [SEQ ID NO: 110, SLDVPTNIMNLLFNIAKAKNLRAQAAANAHLMAQI-NH2]
